Experimental data reported in patent publication US9102665B2, “Cysteinyl leukotriene antagonists” (Sun Pharma Advanced Research Company Ltd., priority 2011, dated 2015).

Target: T1, Leukotriene, Cysteinyl CysLT1 (Cavia porcellus, UniProt Q2NNR5)
T1 construct: from tissue; host or cells: guinea pig lung membrane
T1 sequence (Q2NNR5 1-340): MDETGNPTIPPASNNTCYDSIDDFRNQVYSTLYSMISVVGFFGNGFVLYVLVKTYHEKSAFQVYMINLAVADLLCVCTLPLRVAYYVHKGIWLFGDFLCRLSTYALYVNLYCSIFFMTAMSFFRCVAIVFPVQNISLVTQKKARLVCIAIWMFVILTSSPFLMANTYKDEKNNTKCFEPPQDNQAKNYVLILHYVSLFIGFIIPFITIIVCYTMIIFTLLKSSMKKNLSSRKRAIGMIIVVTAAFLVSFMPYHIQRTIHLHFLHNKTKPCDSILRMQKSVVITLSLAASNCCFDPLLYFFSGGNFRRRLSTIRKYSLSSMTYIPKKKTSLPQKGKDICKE
Test: receptor radio-ligand-binding assay (Tritiated LTD4 as the ligand), Guinea pig lung membrane
Settings: 0.2 nM 3H LTD4, Guinea pig lung membrane; for inhibition at 0.001 µM / inhibition at 0.003 µM / inhibition at 0.01 µM: 0.5 h; for inhibition at 0.001 µM: read-out: % Inhbition (in nM) 1; for inhibition at 0.003 µM: read-out: % Inhbition (in nM) 3; for inhibition at 0.01 µM: read-out: % Inhbition (in nM) 10
Method: The primary in-vitro biological screening for the compounds carried-out involving receptor radio-ligand-binding assay (Tritiated LTD4 as the ligand) by known methods described in literature [a). Mong et al. European Journal of Pharmacology (102); 1984 1-11b). Jones et al; Journal of Physiology & Pharmacology (73); 1994, 191-201 c). MDS Pharma Services: 250460 Leukotriene, Cysteinyl CysLT1]. Accordingly, Guinea pig lung membrane (100 ug) is incubated with 0.2 nM 3H LTD4 in presence of Reference Standard/Test item/Vehicle Control. Non Specific Binding is determined by incubating the membrane with 0.2 nM 3H LTD4 in presence of 1 uM of unlabeled LTD4. The samples are incubated at 26° C. for 30 minutes and are vacuum filtered on a membrane to separate the bound and free radioligand. The membrane is counted in a liquid scintillation counter to calculate the bound radioactivity. Specific Binding in Vehicle treated and Reference Standard/Test item treated set is compared to evaluate the % Inhibition values. Some of the compounds have shown >50% inhibition in the presence of ≦3 nano-molar concentration of the compounds of present invention as shown in the following table.

Row | Compound | inhibition at 0.001 µM (1 nM test compound) [%] | inhibition at 0.003 µM (3 nM test compound) [%] | inhibition at 0.01 µM (10 nM test compound) [%] | % Inhbition (in nM) 1 (1 nM test compound) [%] | % Inhbition (in nM) 3 (3 nM test compound) [%] | % Inhbition (in nM) 10 (10 nM test compound) [%]
1 | CS(=O)(=O)NC(CCc1ccccc1C(=O)O)c1cccc(/C=C/c2ccc3ccc(Cl)cc3n2)c1 (stereo not drawn) [Ia.11, 2-(3-{3-[(E)-2-(7-Chloro-quinolin-2-yl)-vinyl]phenyl}-3-methanesulfonylamino-propyl)-benzoic acid] | 46 | 56 | 71 | – | – | –
2 | O=C(O)c1ccccc1CCC(NC(=O)C(F)(F)F)c1cccc(/C=C/c2ccc3ccc(Cl)cc3n2)c1 (stereo not drawn) [Ia.12, 2-[3-{3-[(E)-2-(7-Chloro-quinolin-2-yl)-vinyl]-phenyl}-3-(2,2,2-trifluoro-acetylamino)-propyl]-benzoic acid] | 5 | 35 | 56 | – | – | –
3 | CCN(CC)C(=O)c1ccccc1CCC(NC(=O)c1ccccc1C(=O)O)c1cccc(/C=C/c2ccc3ccc(Cl)cc3n2)c1 (stereo not drawn) [Ia.38, N-[1-{3-[(E)-2-(7-Chloro-quinolin-2-yl)-vinyl]-phenyl}-3-(2-diethylcarbamoyl-phenyl)-propyl]-phthalamic acid] | 0.3 | 51 | 69 | – | – | –
4 | CCN(CC)C(=O)c1ccccc1CCC(NC(=O)c1ccccc1C(=O)OC)c1cccc(/C=C/c2ccc3ccc(Cl)cc3n2)c1 (stereo not drawn) [Ia.48, N-[1-{3-[(E)-2-(7-Chloro-quinolin-2-yl)-vinyl]-phenyl}-3-(2-diethylcarbamoyl-phenyl)-propyl]-phthalamic acid methyl ester] | 35 | 56 | 65 | – | – | –
5 | O=C(N[C@H](CCc1ccccc1C(=O)O)c1cccc(/C=C/c2ccc3ccc(Cl)cc3n2)c1)c1ccco1 [Ia.54, 2-{(R)-3-{3-[(E)-2-(7-Chloro-quinolin-2-yl)-vinyl]-phenyl}-3-[(furan-2-carbonyl)-amino]-propyl}-benzoic acid] | 50 | 60 | 74 | – | – | –
6 | O=C(N[C@@H](CCc1ccccc1C(=O)O)c1cccc(/C=C/c2ccc3ccc(Cl)cc3n2)c1)c1cccs1 [Ia.69, 2-{(S)-3-{3-[(E)-2-(7-Chloro-quinolin-2-yl)-vinyl]-phenyl}-3-[(thiophene-2-carbonyl)-amino]-propyl}-benzoic acid] | 34 | 56 | 72 | – | – | –
7 | O=C(O)c1ccccc1C(=O)NC(CCc1ccccc1C(=O)N1CCCC1)c1cccc(/C=C/c2ccc3ccc(Cl)cc3n2)c1 (stereo not drawn) [Ia.73, N-{1-{3-[(E)-2-(7-Chloro-quinolin-2-yl)-vinyl]-phenyl}-3-[2-(pyrrolidine-1-carbonyl)-phenyl]-propyl}-phthalamic acid] | 40 | 67 | 72 | – | – | –
8 | CN(C(=O)c1ccco1)C(CCc1ccccc1C(=O)O)c1cccc(/C=C/c2ccc3ccc(Cl)cc3n2)c1 (stereo not drawn) [Ia.76, 2-{3-{3-[(E)-2-(7-Chloro-quinolin-2-yl)-vinyl]-phenyl}-3-[(furan-2-carbonyl)-methyl-amino]-propyl}-benzoic acid] | 37 | 61 | 67 | – | – | –
9 | COC(=O)c1ccccc1CCC(NC(=O)C1=C(C(=O)O)CCC1)c1cccc(/C=C/c2ccc3ccc(Cl)cc3n2)c1 (stereo not drawn) [Ia.80, 2-(3-[(2-Carboxy-cyclopent-1-enecarbonyl)-amino]-3-{3-[(E)-2-(7-chloro-quinolin-2-yl)-vinyl]-phenyl}-propyl)-benzoic acid methyl ester] | 43 | 64 | 65 | – | – | –
10 | CC(=O)OC(CSc1ccccc1C(=O)O)c1cccc(/C=C/c2ccc3ccc(Cl)cc3n2)c1 (stereo not drawn) [Ia.118, 2-(2-Acetoxy-2-{3-[(E)-2-(7-chloro-quinolin-2-yl)-vinyl]-phenyl}-ethylsulfanyl)-benzoic acid] | 33 | 46 | 52 | – | – | –
11 | C#CCOC(COc1ccccc1C(=O)O)c1cccc(/C=C/c2ccc3ccc(Cl)cc3n2)c1 (stereo not drawn) [Ia.127, 2-(2-{3-[(E)-2-(7-Chloro-quinolin-2-yl)-vinyl]-phenyl}-2-prop-2-ynyloxy-ethoxy)-benzoic acid] | 50 | 69 | 73 | – | – | –
12 | O=C(O)c1ccccc1OCC(OCCc1cccs1)c1cccc(/C=C/c2ccc3ccc(Cl)cc3n2)c1 (stereo not drawn) [Ia.143, 2-[2-{3-[(E)-2-(7-Chloro-quinolin-2-yl)-vinyl]-phenyl}-2-(2-thiophen-2-yl-ethoxy)-ethoxy]-benzoic acid] | 32 | 56 | 74 | – | – | –
13 | CCOC(COc1ccc(OC)cc1C(=O)NS(C)(=O)=O)c1cccc(/C=C/c2ccc3ccc(Cl)cc3n2)c1 (stereo not drawn) [Ia.157, N-[2-(2-{3-[(E)-2-(7-Chloro-quinolin-2-yl)-vinyl]-phenyl}-2-ethoxy-ethoxy)-5-methoxybenzoyl]-methanesulfonamide] | 62 | 72 | 80 | – | – | –
14 | [2H]C([2H])([2H])Oc1ccc(OCC(OCC2CC2)c2cccc(/C=C/c3ccc4ccc(Cl)cc4n3)c2)c(C(=O)O)c1 (stereo not drawn) [Ia.172, 2-(2-{3-[(E)-2-(7-Chloro-quinolin-2-yl)-vinyl]-phenyl}-2-cyclopropylmethoxy-ethoxy)-5-triduetereo methoxy-benzoic acid] | – | – | – | 50 | 77 | 88
15 | C#CCO[C@H](COc1ccc(OC)cc1C(=O)O)c1cccc(/C=C/c2ccc3ccc(Cl)cc3n2)c1 [Ia.185, 2-((S)-2-{3-[(E)-2-(7-Chloro-quinolin-2-yl)-vinyl]-phenyl}-2-prop-2-ynyloxy-ethoxy)-5-methoxy-benzoic acid] | 57 | 60 | 84 | – | – | –
16 | CCOC(COc1ccc(OC)cc1C(=O)O)c1cccc(/C=C/c2nc3ccccc3s2)c1 (stereo not drawn) [Ia.192, 2-{2-[3-((E)-2-Benzothiazol-2-yl-vinyl)-phenyl]-2-ethoxy-ethoxy}-5-methoxy-benzoic acid] | 38 | 54 | 74 | – | – | –
17 | CCOC(COc1ccc(OC)cc1C(=O)O)c1cccc(C#Cc2ccc3ccc(Cl)cc3n2)c1 (stereo not drawn) [Ia.199, 2-{2-[3-(7-Chloro-quinolin-2-ylethynyl)-phenyl]-2-ethoxy-ethoxy}-5-methoxy-benzoic acid] | 76 | 88 | 97 | – | – | –
18 | CCOC(CSc1ncccc1C(=O)O)c1cccc(/C=C/c2ccc3ccc(Cl)cc3n2)c1 (stereo not drawn) [Ia.205, 2-(2-{3-[(E)-2-(7-Chloro-quinolin-2-yl)-vinyl]-phenyl}-2-ethoxy-ethylsulfanyl)-nicotinic acid] | 46 | 49 | 70 | – | – | –
19 | O=C(O)c1ccccc1CCC1(c2cccc(/C=C/c3ccc4ccc(Cl)cc4n3)c2)OCCO1 [Ib.4, 2-[2-(2-{3-[(E)-2-(7-Chloro-quinolin-2yl)-vinyl]phenyl}-[1,3]dioxolan-2yl)-ethyl]-benzoic acid] | 33 | 41 | 62 | – | – | –
20 | Cc1oc(=O)oc1COC(=O)c1ccccc1CCC1(c2cccc(/C=C/c3ccc4ccc(Cl)cc4n3)c2)OCCO1 [Ib.11] | 32 | 60 | 74 | – | – | –
21 | CC1(C)COC(CCc2ccccc2C(=O)O)(c2cccc(/C=C/c3ccc4ccc(Cl)cc4n3)c2)OC1 [Ib.26] | 34 | 53 | 56 | – | – | –
22 | O=C(c1ccccc1CCC1(c2cccc(/C=C/c3ccc4ccc(Cl)cc4n3)c2)OCCO1)N1CCCC1 [Ib.36, {2-[2-(2-{3-[(E)-2-(7-Chloro-quinolin-2-yl)-vinyl]-phenyl}-[1,3]-dioxolan-2-yl)-ethyl]-phenyl}-pyrrolidin-1-yl-methanone] | 49 | 91 | 99 | – | – | –
23 | O=C(O)c1ccccc1SCC1(c2cccc(/C=C/c3ccc4ccc(Cl)cc4n3)c2)OCCO1 [Ib.42] | 31 | 41 | 49 | – | – | –
24 | O=C(O)c1ccccc1CCC1(c2cccc(/C=C/c3ccc4ccc(Cl)cc4n3)c2)OCCS1 (stereo not drawn) [Ib.59] | 64 | 74 | 97 | – | – | –
25 | COc1ccc(CCC2(c3cccc(/C=C/c4ccc5ccc(Cl)cc5n4)c3)OCCO2)c(C(=O)O)c1 [Ib.67] | 72 | 86 | 89 | – | – | –
